According to publication PMC8523698, “Preclinical characterization of an intravenous coronavirus 3CL protease inhibitor for the potential treatment of COVID19” (Nature Communications, 2021):
Values joined by “and” are separate entries in the source; they are usually repeats but may differ in a detail not shown here. Identical values can stand only once. Like-named read-outs stand apart in the source and are kept apart here.

Key:
[1] = biological target: T1, OATP1B3 (Homo sapiens, UniProt Q9NPD5); assay: Transporter inhibition using transfected HEK293 cells; conditions: IC50, Rosuvastatin (0.5 µM)
T1 sequence (Q9NPD5 1-702): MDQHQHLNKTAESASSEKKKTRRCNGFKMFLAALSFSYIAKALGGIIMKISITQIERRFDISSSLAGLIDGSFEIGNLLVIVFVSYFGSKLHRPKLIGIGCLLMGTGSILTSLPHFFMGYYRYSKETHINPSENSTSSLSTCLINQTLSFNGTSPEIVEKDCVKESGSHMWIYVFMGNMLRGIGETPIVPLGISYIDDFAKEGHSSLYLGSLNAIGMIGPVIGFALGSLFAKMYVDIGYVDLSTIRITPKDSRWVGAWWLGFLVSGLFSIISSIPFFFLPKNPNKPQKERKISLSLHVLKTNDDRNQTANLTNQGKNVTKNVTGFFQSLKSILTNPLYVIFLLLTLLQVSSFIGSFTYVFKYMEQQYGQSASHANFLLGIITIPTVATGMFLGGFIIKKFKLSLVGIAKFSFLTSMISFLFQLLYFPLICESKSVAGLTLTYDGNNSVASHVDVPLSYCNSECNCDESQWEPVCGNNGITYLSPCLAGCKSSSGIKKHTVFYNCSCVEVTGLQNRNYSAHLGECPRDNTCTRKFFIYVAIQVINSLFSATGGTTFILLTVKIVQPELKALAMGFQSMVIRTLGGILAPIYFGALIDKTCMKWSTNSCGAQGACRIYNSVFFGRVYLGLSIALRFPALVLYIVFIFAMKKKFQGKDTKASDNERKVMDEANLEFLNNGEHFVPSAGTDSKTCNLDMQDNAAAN

[2] = Plasma protein binding by equilibrium dialysis; conditions: rat plasma, 3.44 uM; for fraction unbound at 6 h, 3.44 uM: rat, plasma
[3] = Monkey pharmacokinetic study; conditions: for Vd: Vdss
[4] = biological target: T2, CYP1A2 (Homo sapiens, UniProt P05177); assay: Reversible CYP inhibition in human liver microsomes; conditions: for activity at 0.01 µM / activity at 0.158 µM / activity at 0.398 µM / activity at 1 µM / activity at 15.8 µM / activity at 39.8 µM / activity at 100 µM: human, microsomes, pH 7.4, Percent of Control Activity
T2 sequence (P05177 1-516): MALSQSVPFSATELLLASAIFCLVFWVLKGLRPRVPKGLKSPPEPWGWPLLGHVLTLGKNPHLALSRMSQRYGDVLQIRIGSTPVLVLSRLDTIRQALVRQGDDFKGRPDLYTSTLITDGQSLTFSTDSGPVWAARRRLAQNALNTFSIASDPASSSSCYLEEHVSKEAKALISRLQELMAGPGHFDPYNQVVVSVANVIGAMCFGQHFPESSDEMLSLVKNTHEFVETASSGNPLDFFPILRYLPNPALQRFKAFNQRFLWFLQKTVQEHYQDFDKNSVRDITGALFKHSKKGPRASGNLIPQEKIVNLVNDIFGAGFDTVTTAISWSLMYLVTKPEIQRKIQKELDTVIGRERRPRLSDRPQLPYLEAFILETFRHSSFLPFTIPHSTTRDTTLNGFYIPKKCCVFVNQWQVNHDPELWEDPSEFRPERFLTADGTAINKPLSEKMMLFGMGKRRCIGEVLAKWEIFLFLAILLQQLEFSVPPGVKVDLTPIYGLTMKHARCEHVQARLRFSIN

[5] = monkey, PF-07304814 prodrug dosed […] intravenous, individual monkeys, […]

Which results are given for `COc1cccc2[nH]c(C(=O)N[C@@H](CC(C)C)C(=O)N[C@@H](C[C@@H]3CCNC3=O)C(=O)COP(=O)(O)O)cc12` [PF-07304814]?
IC50 [1]: 202 µM and > 130 µM; fraction unbound at 6 h, 3.44 uM ([2]; Sprague-Dawley, pH 7.4, fraction unbound Geomean, n=12): 0.379; fraction unbound at 6 h, 3.44 uM ([2]; both, Sprague Dawley, pH 7.4, Individual fraction unbound, Sprague Dawley, male and female, Day 1): 0.404; fraction unbound at 6 h, 3.44 uM ([2]; both, Sprague Dawley, pH 7.4, Individual fraction unbound, Sprague Dawley, male and female, Day 2): 0.362; fraction unbound at 6 h, 3.44 uM ([2]; both, Sprague Dawley, pH 7.4, Individual fraction unbound, Sprague Dawley, male and female, Day 3): 0.404; Individual fraction unbound ([2]; Sprague Dawley, male and female, Day 1): 0.384 and 0.405 and 0.491; Individual fraction unbound ([2]; Sprague Dawley, male and female, Day 2): 0.301 and 0.338 and 0.325; Individual fraction unbound ([2]; Sprague Dawley, male and female, Day 3): 0.406 and 0.385 and 0.381; clearance ([3]; male, cynomolgus monkey, plasma, iv, Cl, monkey IV (n=2, range), PF-07304814 […], PF-00835231 1.0mg/kg): 191 mL/min/kg; half-life ([3]; male, cynomolgus monkey, plasma, iv, Terminal T1/2, monkey IV (n=2, range), PF-07304814 […], PF-00835231 1.0mg/kg): 2.6 h; Vd ([3]; male, cynomolgus monkey, plasma, iv, monkey IV (n=2, range), PF-07304814 […], PF-00835231 1.0mg/kg): 1.8 L/kg; clearance ([3]; male, cynomolgus monkey, plasma, iv, […], Clearance, Mean Data, monkey, PF-07304814 prodrug dosed […] intravenous, mean): 191 mL/min/kg; clearance ([3]; male, cynomolgus monkey, plasma, iv, […], Clearance, monkey, PF-07304814 prodrug dosed […] intravenous, individual monkeys): 252 mL/min/kg; half-life ([3]; male, cynomolgus monkey, plasma, iv, […], Half life, Mean Data, monkey, PF-07304814 prodrug dosed […] intravenous, mean): 2.6 h; half-life ([3]; male, cynomolgus monkey, plasma, iv, […], Half life, monkey, PF-07304814 prodrug dosed […] intravenous, individual monkeys): 2.2 h; Vd ([3]; male, cynomolgus monkey, plasma, iv, […], Mean Data, monkey, PF-07304814 prodrug dosed […] intravenous, mean): 1.78 L/kg; %unchanged in urine ([3]; monkey IV, PF-07304814 […], PF-00835231 1.0mg/kg): < 0.1%; Total Concn, Mean Data ([3]; monkey plasma, PF-07304814 prodrug dosed […] intravenous, time 7 h, mean, BLQ=0.1ng/mL): BLQ; Urine Concn ([3]; monkey urine 0-7h, PF-07304814 prodrug dosed […] intravenous, individual monkeys, BLQ=1ng/mL for urine): BLQ; Half life [3, 5]: 3.0 h; clearance [3, 5]: 129 mL/min/kg; IC50 [4]: > 100 µM; Percent of Control Activity ([4]; CYP 1A2, 0.01 µM, 30-Minute Preincubation, 0.01 µM): 103.6% and 101.2%; Percent of Control Activity ([4]; CYP 1A2, 0.01 µM, Zero-Minute Preincubation, 0.01 µM): 97.5%; Percent of Control Activity ([4]; CYP 1A2, 0.158 µM, 30-Minute Preincubation, 0.158 µM): 95.4% and 101.9%; Percent of Control Activity ([4]; CYP 1A2, 0.158 µM, Zero-Minute Preincubation, 0.158 µM): 97.0% and 100.9%; Percent of Control Activity ([4]; CYP 1A2, 0.398 µM, 30-Minute Preincubation, 0.398 µM): 101.4% and 101.2%; Percent of Control Activity ([4]; CYP 1A2, 0.398 µM, Zero-Minute Preincubation, 0.398 µM): 96.0% and 97.7%; Percent of Control Activity ([4]; CYP 1A2, 1 µM, 30-Minute Preincubation, 1 µM): 102.8% and 101.6%; Percent of Control Activity ([4]; CYP 1A2, 1 µM, Zero-Minute Preincubation, 1 µM): 94.7% and 96.1%; Percent of Control Activity ([4]; CYP 1A2, 15.8 µM, 30-Minute Preincubation, 15.8 µM): 103.2%; Percent of Control Activity ([4]; CYP 1A2, 39.8 µM, 30-Minute Preincubation, 39.8 µM): 101.7% and 102.7%; Percent of Control Activity ([4]; CYP 1A2, 39.8 µM, Zero-Minute Preincubation, 39.8 µM): 98.4% and 99.6%; Percent of Control Activity ([4]; CYP 1A2, 100 µM, 30-Minute Preincubation, 100 µM): 104.3% and 102.5%; Percent of Control Activity ([4]; CYP 1A2, 100 µM, Zero-Minute Preincubation, 100 µM): 94.4% and 97.1%; IC50 ([4]; Phenacetin O-dealkylation, 30-minute preincubation (T30)): > 100 µM; activity at 0.01 µM ([4]; CYP 1A2, 0.01 µM, 30-Minute Preincubation): 96.7%; activity at 0.01 µM ([4]; CYP 1A2, 0.01 µM, Zero-Minute Preincubation): 100%; activity at 0.158 µM ([4]; CYP 1A2, 0.158 µM, 30-Minute Preincubation): 102%; activity at 0.158 µM ([4]; CYP 1A2, 0.158 µM, Zero-Minute Preincubation): 96.4%; activity at 0.398 µM ([4]; CYP 1A2, 0.398 µM, 30-Minute Preincubation): 102%; activity at 0.398 µM ([4]; CYP 1A2, 0.398 µM, Zero-Minute Preincubation): 98.5%; activity at 1 µM ([4]; CYP 1A2, 1 µM, 30-Minute Preincubation): 100%; activity at 1 µM ([4]; CYP 1A2, 1 µM, Zero-Minute Preincubation): 99.4%; activity at 15.8 µM ([4]; CYP 1A2, 15.8 µM, 30-Minute Preincubation): 102%; activity at 15.8 µM ([4]; CYP 1A2, 15.8 µM, Zero-Minute Preincubation): 100%; activity at 39.8 µM ([4]; CYP 1A2, 39.8 µM, 30-Minute Preincubation): 102%; activity at 39.8 µM ([4]; CYP 1A2, 39.8 µM, Zero-Minute Preincubation): 98.5%; activity at 100 µM ([4]; CYP 1A2, 100 µM, 30-Minute Preincubation): 103%; activity at 100 µM ([4]; CYP 1A2, 100 µM, Zero-Minute Preincubation): 97.8%
